Measured values taken from patent US20230167073A1 (Teijin Pharma Limited, priority 2020, published 2023).

Target: T1, Human TRPC6 (Homo sapiens, UniProt Q9Y210)
T1 construct: expressed in transfected cells
T1 sequence (Q9Y210 1-931): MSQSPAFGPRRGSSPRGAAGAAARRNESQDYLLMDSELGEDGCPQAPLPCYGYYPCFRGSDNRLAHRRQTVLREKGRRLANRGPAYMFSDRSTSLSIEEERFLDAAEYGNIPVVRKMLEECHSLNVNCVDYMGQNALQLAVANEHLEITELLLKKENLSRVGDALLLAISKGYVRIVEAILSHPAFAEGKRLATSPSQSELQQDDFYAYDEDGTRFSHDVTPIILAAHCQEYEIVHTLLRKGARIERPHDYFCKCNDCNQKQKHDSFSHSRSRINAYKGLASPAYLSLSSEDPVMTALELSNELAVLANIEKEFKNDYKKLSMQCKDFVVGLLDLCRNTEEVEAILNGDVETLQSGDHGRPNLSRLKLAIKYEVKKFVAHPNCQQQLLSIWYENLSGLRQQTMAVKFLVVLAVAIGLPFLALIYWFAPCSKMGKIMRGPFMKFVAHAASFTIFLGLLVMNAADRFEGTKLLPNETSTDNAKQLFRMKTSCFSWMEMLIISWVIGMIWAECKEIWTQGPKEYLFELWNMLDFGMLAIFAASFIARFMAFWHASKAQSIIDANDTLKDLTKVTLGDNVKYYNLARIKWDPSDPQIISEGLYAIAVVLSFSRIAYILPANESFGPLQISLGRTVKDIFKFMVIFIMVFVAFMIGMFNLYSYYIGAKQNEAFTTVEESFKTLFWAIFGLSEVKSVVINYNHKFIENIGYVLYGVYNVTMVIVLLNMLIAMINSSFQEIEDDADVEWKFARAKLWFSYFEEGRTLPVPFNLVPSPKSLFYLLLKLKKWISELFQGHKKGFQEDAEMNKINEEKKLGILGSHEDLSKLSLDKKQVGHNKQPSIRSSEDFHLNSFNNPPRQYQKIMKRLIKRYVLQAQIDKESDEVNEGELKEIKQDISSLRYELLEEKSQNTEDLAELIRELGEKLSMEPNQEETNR
Test: Evaluation of TRPC6 channel inhibitory activity (1), FLIPR Calcium 5 Assay Kit, OAG stimulation (Compound Nos. 1-1293)
Type: cell-based
Details: Human TRPC6 stably-expressing cells, OAG 30 μM, FLIPR Calcium 5 Assay Kit; read-out: Inhibitory activity (pIC50 class) (converted)
In short: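 Cells stably expressing human TRPC6, plated 24 h before, were loaded 30 min with Calcium 5 dye plus probenecid in HEPES-HBSS. Compound was added 20 min before OAG (30 μM final) and fluorescence tracked on FLIPR. Inhibition normalised to no-compound and no-compound/no-OAG wells; pIC50 from four-parameter fit, reported as +/++/+++ categories.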

IC50 [µM]	SMILES
0.01 to 1	CC(C)Cc1cn(Cc2cc(C#N)ccc2-c2ncc(CN)cn2)nn1 [compound 1188, 4-[5-(aminomethyl)pyrimidin-2-yl]-3-[[4-(2-methylpropyl)triazol-1-yl]methyl]benzonitrile]
0.01 to 1	CC(C)c1cn(Cc2cc(C#N)ccc2-c2ncc(CN)cn2)nn1 [compound 1189, 4-[5-(aminomethyl)pyrimidin-2-yl]-3-[(4-propan-2-yltriazol-1-yl)methyl]benzonitrile]
0.01 to 1	N#Cc1ccc(-c2ncc(CN)cn2)c(Cn2cc(C3CCCCC3)nn2)c1 [compound 1190, 4-[5-(aminomethyl)pyrimidin-2-yl]-3-[(4-cyclohexyltriazol-1-yl)methyl]benzonitrile]
0.01 to 1	N#Cc1ccc(-c2ncc(CN)cn2)c(Cn2cc(C3CC3)nn2)c1 [compound 1191, 4-[5-(aminomethyl)pyrimidin-2-yl]-3-[(4-cyclopropyltriazol-1-yl)methyl]benzonitrile]
> 1	Cc1nc(-c2cncc(F)c2)cn1Cc1cc(C#N)ccc1-c1ncc(CN)cn1 [compound 1192, 4-[5-(aminomethyl)pyrimidin-2-yl]-3-[[4-(5-fluoropyridin-3-yl)-2-methylimidazol-1-yl]methyl]benzonitrile]
0.01 to 1	Cc1nc(-c2cncc(F)c2)cn1Cc1cc(C#N)ccc1-c1ccc(CCN)cn1 [compound 1193, 4-[5-(2-aminoethyl)pyridin-2-yl]-3-[[4-(5-fluoropyridin-3-yl)-2-methylimidazol-1-yl]methyl]benzonitrile]
> 1	Cc1nc(-c2cncc(F)c2)cn1Cc1cc(C#N)ccc1-c1ncc(CCN)cn1 [compound 1194, 4-[5-(2-aminoethyl)pyrimidin-2-yl]-3-[[4-(5-fluoropyridin-3-yl)-2-methylimidazol-1-yl]methyl]benzonitrile]
0.01 to 1	CC(C)Cn1cc(Cc2cc(C#N)ccc2-c2ncc(CN)cn2)cn1 [compound 1196, 4-[5-(aminomethyl)pyrimidin-2-yl]-3-[[1-(2-methylpropyl)pyrazol-4-yl]methyl]benzonitrile]
0.01 to 1	N#Cc1ccc(-c2ncc(CCN)cn2)c(Cc2cnn(-c3ccccn3)c2)c1 [compound 1197, 4-[5-(2-aminoethyl)pyrimidin-2-yl]-3-[(1-pyridin-2-ylpyrazol-4-yl)methyl]benzonitrile]
< 0.01	Cc1nn(CC(C)C)cc1Cc1cc(C#N)ccc1-c1ncc(CCN)cn1 [compound 1199, 4-[5-(2-aminoethyl)pyrimidin-2-yl]-3-[[3-methyl-1-(2-methylpropyl)pyrazol-4-yl]methyl]benzonitrile]
0.01 to 1	N#Cc1ccc(-c2ncc(CCN)cn2)c(Cn2cc(N3CCOCC3)cn2)c1 [compound 1200, 4-[5-(2-aminoethyl)pyrimidin-2-yl]-3-[(4-morpholin-4-ylpyrazol-1-yl)methyl]benzonitrile]
0.01 to 1	N#Cc1ccc(-c2ncc(CCN)cn2)c(Cn2cc(-c3ccccc3)cn2)c1 [compound 1201, 4-[5-(2-aminoethyl)pyrimidin-2-yl]-3-[(4-phenylpyrazol-1-yl)methyl]benzonitrile]
< 0.01	Cc1nn(-c2ccccn2)cc1Cc1cc(C#N)ccc1-c1ncc(CCN)cn1 [compound 1202, 4-[5-(2-aminoethyl)pyrimidin-2-yl]-3-[(3-methyl-1-pyridin-2-ylpyrazol-4-yl)methyl]benzonitrile]
< 0.01	Cc1nn(-c2ccccn2)cc1Cc1cc(C#N)ccc1-c1ccc(CCN)cn1 [compound 1203, 4-[5-(2-aminoethyl)pyridin-2-yl]-3-[(3-methyl-1-pyridin-2-ylpyrazol-4-yl)methyl]benzonitrile]
0.01 to 1	Cc1cc(Cc2cc(C#N)ccc2-c2ncc(CCN)cn2)cc(N2CCOCC2)n1 [compound 1204, 4-[5-(2-aminoethyl)pyrimidin-2-yl]-3-[(2-methyl-6-morpholin-4-ylpyridin-4-yl)methyl]benzonitrile]

The remaining lines, values behind:

SMILES	IC50 [µM]
N#Cc1ccc(-c2ncc(CN)cn2)c(Cn2cc(-c3ccccc3)nn2)c1 [compound 1168, 4-[5-(aminomethyl)pyrimidin-2-yl]-3-[(4-phenyltriazol-1-yl)methyl]benzonitrile]	0.01 to 1
N#Cc1ccc(-c2ncc(CCN)cn2)c(Cn2ncc(-c3ccccc3)n2)c1 [compound 1169, 4-[5-(2-aminoethyl)pyrimidin-2-yl]-3-[(4-phenyltriazol-2-yl)methyl]benzonitrile]	> 1
N#Cc1ccc(-c2ncc(CN)cn2)c(Cn2ncc(-c3ccccc3)n2)c1 [compound 1170, 4-[5-(aminomethyl)pyrimidin-2-yl]-3-[(4-phenyltriazol-2-yl)methyl]benzonitrile]	> 1
Cc1nc(C(C)C)cn1Cc1cc(C#N)ccc1-c1ncc(CCN)cn1 [compound 1171, 4-[5-(2-aminoethyl)pyrimidin-2-yl]-3-[(2-methyl-4-propan-2-ylimidazol-1-yl)methyl]benzonitrile]	0.01 to 1
Cc1nc(C(C)C)cn1Cc1cc(C#N)ccc1-c1ncc(CN)cn1 [compound 1172, 4-[5-(aminomethyl)pyrimidin-2-yl]-3-[(2-methyl-4-propan-2-ylimidazol-1-yl)methyl]benzonitrile]	0.01 to 1
Cc1nc(C(F)(F)F)cn1Cc1cc(C#N)ccc1-c1ncc(CCN)cn1 [compound 1173, 4-[5-(2-aminoethyl)pyrimidin-2-yl]-3-[[2-methyl-4-(trifluoromethyl)imidazol-1-yl]methyl]benzonitrile]	< 0.01
Cc1nc(C(F)(F)F)cn1Cc1cc(C#N)ccc1-c1ncc(CN)cn1 [compound 1174, 4-[5-(aminomethyl)pyrimidin-2-yl]-3-[[2-methyl-4-(trifluoromethyl)imidazol-1-yl]methyl]benzonitrile]	0.01 to 1
Cc1nc(CN2CCCC2)cn1Cc1cc(C#N)ccc1-c1ncc(CCN)cn1 [compound 1175, 4-[5-(2-aminoethyl)pyrimidin-2-yl]-3-[[2-methyl-4-(pyrrolidin-1-ylmethyl)imidazol-1-yl]methyl]benzonitrile]	> 1
Cc1nc(C(F)F)cn1Cc1cc(C#N)ccc1-c1ncc(CCN)cn1 [compound 1176, 4-[5-(2-aminoethyl)pyrimidin-2-yl]-3-[[4-(difluoromethyl)-2-methylimidazol-1-yl]methyl]benzonitrile]	0.01 to 1
Cc1nc(CN2CCC(F)CC2)cn1Cc1cc(C#N)ccc1-c1ncc(CCN)cn1 [compound 1177, 4-[5-(2-aminoethyl)pyrimidin-2-yl]-3-[[4-[(4-fluoropiperidin-1-yl)methyl]-2-methylimidazol-1-yl]methyl]benzonitrile]	> 1
Cc1nc(CN(C)C)cn1Cc1cc(C#N)ccc1-c1ncc(CCN)cn1 [compound 1178, 4-[5-(2-aminoethyl)pyrimidin-2-yl]-3-[[4-[(dimethylamino)methyl]-2-methylimidazol-1-yl]methyl]benzonitrile]	> 1
Cc1nc(CN2CCC(C(F)(F)F)CC2)cn1Cc1cc(C#N)ccc1-c1ncc(CCN)cn1 [compound 1180, 4-[5-(2-aminoethyl)pyrimidin-2-yl]-3-[[2-methyl-4-[[4-(trifluoromethyl)piperidin-1-yl]methyl]imidazol-1-yl]methyl]benzonitrile]	> 1
Cc1nc(CNC(C)C)cn1Cc1cc(C#N)ccc1-c1ncc(CCN)cn1 [compound 1181, 4-[5-(2-aminoethyl)pyrimidin-2-yl]-3-[[2-methyl-4-[(propan-2-ylamino)methyl]imidazol-1-yl]methyl]benzonitrile]	> 1
N#Cc1ccc(-c2ncc(CCN)cn2)c(Cn2ccnc2-c2ccccc2)c1 [compound 1182, 4-[5-(2-aminoethyl)pyrimidin-2-yl]-3-[(2-phenylimidazol-1-yl)methyl]benzonitrile]	> 1
N#Cc1ccc(-c2ncc(CN)cn2)c(Cn2ccnc2-c2ccccc2)c1 [compound 1183]	> 1
CC(C)Cc1cn(Cc2cc(C#N)ccc2-c2ncc(CCN)cn2)nn1 [compound 1184, 4-[5-(2-aminoethyl)pyrimidin-2-yl]-3-[[4-(2-methylpropyl)triazol-1-yl]methyl]benzonitrile]	< 0.01
CC(C)c1cn(Cc2cc(C#N)ccc2-c2ncc(CCN)cn2)nn1 [compound 1185, 4-[5-(2-aminoethyl)pyrimidin-2-yl]-3-[(4-propan-2-yltriazol-1-yl)methyl]benzonitrile]	< 0.01
N#Cc1ccc(-c2ncc(CCN)cn2)c(Cn2cc(C3CCCCC3)nn2)c1 [compound 1186, 4-[5-(2-aminoethyl)pyrimidin-2-yl]-3-[(4-cyclohexyltriazol-1-yl)methyl]benzonitrile]	< 0.01
